Measurements published in PMC6445228, “Synthesis and biological evaluation of anti-Toxoplasma gondii activity of a novel scaffold of thiazolidinone derivatives” (Journal of Enzyme Inhibition and Medicinal Chemistry, 2017).
pIC50: −log10 of the molar value. Like-named read-outs stand apart in the source and are kept apart here.

Key:
[1] = tested on: T. gondii RH-2 F tachyzoites; assay: Five-day growth inhibition assay (tachyzoite growth, colorimetric); assay type: cell-based, Toxoplasma gondii; conditions: 120 h, T. gondii RH-2 F in HFF, three experiments; for pIC50: read-out: IC50, median inhibitory concentration, a measure of tachyzoite inhibition; for IC90: read-out: IC90, concentration at which 90% of the tachyzoite growth is inhibited
Experimental: (§1) Using published methods[8]^,[19], all of the prepared N-substituted thiazolidinones derivatives were evaluated in vitro for (i) host cell cytotoxicity as well as for the ability to inhibit tachyzoite growth over a period of 5 days (Table 1), for (ii) the ability to inhibit tachyzoite invasion of host cells (Figure 1), and for (iii) the ability to inhibit intracellular tachyzoite replication (Figure 2).
(§2) Compounds were tested for the ability to inhibit in vitro tachyzoite (T. gondii RH-2 F (50839); ATCC, VA) and human foreskin fibroblast (HFF; ATCC) growth for 120 h using a published colorimetric assay[8]^,[19]. Stock solutions of all compounds were 10 mM in DMSO. Serial 0.5 log10 dilutions (320–0.032 μM) of each compound were tested. Data from three separate experiments were analysed and the IC50, IC90, and TD50 calculated using Calcusyn software (Biosoft, Cambridge, UK). The therapeutic index (TI), a measure of specific anti-T. gondii activity, was calculated with the formula shown under Table 1.
We explored the chemical space and the influence on the biological activity of different groups (substituted aromatic and bicyclic rings) at the lactam NH of the core nucleus. […] In the five-day growth inhibition assay, compounds were added only once, just before addition of tachyzoites, and thus were present for multiple cycles, up to 20, of parasite replication.

[2] = tested on: human foreskin fibroblast (HFF); assay: Five-day growth inhibition assay, host cell cytotoxicity; conditions: 120 h
Experimental: as §1, §2

[3] = HFF cells, top concentration 320 μM

Row | Compound | pIC50 ([1]; Toxoplasma gondii) | IC90 ([1]; Toxoplasma gondii) | melting point | TD50, median toxicity dose, a measure of cytotoxicity against host cells ([2]; human) | pIC50 [1] | IC90 [1] | TD50, median toxicity dose, a measure of cytotoxicity against host cells [2, 3]
1 | CC(=NN=C1SCC(=O)N1Cc1ccccc1F)c1cccs1 [Compound 11, 3-(2-Fluorobenzyl)-2-((1-(thiophen-2-yl)ethylidene)hydrazono)thiazolidin-4-one] | 4.60 | 103 µM | 80 to 85 °C | 82 µM | – | – | –
2 | CCCCC(CC)=NN=C1SCC(=O)N1Cc1cccc(Cl)c1 [Compound 22, 3-(3-Chlorobenzyl)-2-((heptan-3-ylidene)hydrazono)thiazolidin-4-one] | 4.72 | 106 µM | – | 165 µM | – | – | –
3 | CC(=NN=C1SCC(=O)N1Cc1ccccc1Cl)c1cccs1 [Compound 20, 3-(2-Chlorobenzyl)-2-((1-(thiophen-2-yl)ethylidene)hydrazono)thiazolidin-4-one] | 4.47 | 112 µM | 100 to 102 °C | 84 µM | – | – | –
4 | CC(=NN=C1SCC(=O)N1Cc1ccc(F)cc1)c1cccs1 [Compound 17, 3-(4-Fluorobenzyl)-2-((1-(thiophen-2-yl)ethylidene)hydrazono)thiazolidin-4-one] | 4.14 | 312 µM | 118 to 123 °C | ≥320 µM | – | – | –
5 | CCCCC(CC)=NN=C1SCC(=O)N1Cc1ccc(Cl)cc1 [Compound 25, 3-(4-Chlorobenzyl)-2-((heptan-3-ylidene)hydrazono)thiazolidin-4-one] | 4.29 | 131 µM | – | 244 µM | – | – | –
6 | CC(=NN=C1SCC(=O)N1Cc1cccc([N+](=O)[O-])c1)c1cccs1 [Compound 5, 3-(3-Nitrobenzyl)-2-((1-(thiophen-2-yl)ethylidene)hydrazono)thiazolidin-4-one] | 4.28 | 171 µM | 165 to 170 °C | ≥320 µM | – | – | –
7 | CCCCC(CC)=NN=C1SCC(=O)N1CN1C(=O)c2ccccc2C1=O [Compound 31, 2-((2-((Heptan-3-ylidene)hydrazono)-4-oxothiazolidin-3-yl)methyl)isoindoline-1,3-dione] | 4.06 | 402 µM | – | ≥320 µM | – | – | –
8 | CCCCC(CC)=NN=C1SCC(=O)N1Cc1cccc2ccccc12 [Compound 28, 2-((Heptan-3-ylidene)hydrazono)-3-(naphthalen-1-ylmethyl)thiazolidin-4-one] | 4.43 | 138 µM | – | 271 µM | – | – | –
9 | CCCCC(CC)=NN=C1SCC(=O)N1Cc1ccc([N+](=O)[O-])cc1 [Compound 7, 2-((Heptan-3-ylidene)hydrazono)-3-(4-nitrobenzyl)thiazolidin-4-one] | 4.49 | 128 µM | – | 98 µM | – | – | –
10 | CC(=NN=C1SCC(=O)N1Cc1ccccc1Cl)c1ccc[cH-]1.[Fe+2].c1cc[cH-]c1 [Compound 21, 3-(2-Chlorobenzyl)-2-((1-(ferrocen-2-yl)ethylidene)hydrazono)thiazolidin-4-one] | – | – | – | – | 5.05 | 24 µM | ≥320 µM
11 | CC(=NN=C1SCC(=O)N1Cc1cccc([N+](=O)[O-])c1)c1ccc[cH-]1.[Fe+2].c1cc[cH-]c1 [Compound 6, 3-(3-Nitrobenzyl)-2-((1-(ferrocen-2-yl)ethylidene)hydrazono)thiazolidin-4-one] | – | – | – | – | 4.62 | 152 µM | ≥320 µM
12 | CCCCC(CC)=NN=C1SCC(=O)N1Cc1ccccc1Cl [Compound 19, 3-(2-Chlorobenzyl)-2-((heptan-3-ylidene)hydrazono)thiazolidin-4-one] | 4.41 | 183 µM | – | 95 µM | – | – | –
13 | CCCCC(CC)=NN=C1SCC(=O)N1Cc1cccc(F)c1 [Compound 13, 3-(3-Fluorobenzyl)-2-((heptan-3-ylidene)hydrazono)thiazolidin-4-one] | 4.74 | 99 µM | 30 to 31 °C | 246 µM | – | – | –
14 | CC(=NN=C1SCC(=O)N1Cc1ccc(Cl)cc1)c1cccs1 [Compound 26, 3-(4-Chlorobenzyl)-2-((1-(thiophen-2-yl)ethylidene)hydrazono)thiazolidin-4-one] | 4.09 | 211 µM | 146 to 151 °C | ≥320 µM | – | – | –
15 | CCCCC(CC)=NN=C1SCC(=O)N1Cc1ccccc1[N+](=O)[O-] [Compound 1, 2-((Heptan-3-ylidene)hydrazono)-3-(2-nitrobenzyl)thiazolidin-4-one] | 4.70 | 111 µM | 67 to 69 °C | 236 µM | – | – | –
16 | CCCCC(CC)=NN=C1SCC(=O)N1Cc1ccc(F)cc1 [Compound 16, 3–(4-Fluorobenzyl)-2-((heptan-3-ylidene)hydrazono)thiazolidin-4-one] | 4.54 | 107 µM | – | 192 µM | – | – | –
17 | CC(=NN=C1SCC(=O)N1Cc1ccccc1[N+](=O)[O-])c1cccs1 [Compound 2, 3-(2-Nitrobenzyl)-2-((1-(thiophen-2-yl)ethylidene)hydrazono)thiazolidin-4-one] | 4.43 | 155 µM | 150 to 151 °C | 280 µM | – | – | –
18 | O=C1C(O)=C([C@H]2CC[C@H](c3ccc(Cl)cc3)CC2)C(=O)c2ccccc21 [Atovaquone, reference compound] | 6.70 | 2 µM | – | 24 µM | – | – | –
19 | CC(=NN=C1SCC(=O)N1Cc1cccc(Cl)c1)c1cccs1 [Compound 23, 3-(3-Chlorobenzyl)-2-((1-(thiophen-2-yl)ethylidene)hydrazono)thiazolidin-4-one] | 4.29 | 256 µM | 129 to 131 °C | 147 µM | – | – | –
20 | CC(=NN=C1SCC(=O)N1Cc1cccc(F)c1)c1cccs1 [Compound 14, 3-(3-Fluorobenzyl)-2-((1-(thiophen-2-yl)ethylidene)hydrazono)thiazolidin-4-one] | 4.35 | 147 µM | 84 to 85 °C | 178 µM | – | – | –
21 | CC(=NN=C1SCC(=O)N1CN1C(=O)c2ccccc2C1=O)c1ccc[cH-]1.[Fe+2].c1cc[cH-]c1 [Compound 33, 2-((4-Oxo-2-((1-(ferrocen-2-yl)ethylidene)hydrazono)thiazolidin-3-yl)methyl)isoindoline-1,3-dione] | – | – | – | – | 4.09 | 286 µM | 138 µM
22 | CC(=NN=C1SCC(=O)N1Cc1cccc(Cl)c1)c1ccc[cH-]1.[Fe+2].c1cc[cH-]c1 [Compound 24, 3-(3-Chlorobenzyl)-2-((1-(ferrocen-2-yl)ethylidene)hydrazono)thiazolidin-4-one] | – | – | – | – | 5.10 | 17 µM | ≥320 µM
23 | CCCCC(CC)=NN=C1SCC(=O)N1Cc1cccc([N+](=O)[O-])c1 [Compound 4, 2-((Heptan-3-ylidene)hydrazono)-3–(3-nitrobenzyl)thiazolidin-4-one] | 4.36 | 138 µM | – | 68 µM | – | – | –
24 | CCCCC(CC)=NN=C1SCC(=O)N1Cc1ccccc1F [Compound 10, 3-(2-Fluorobenzyl)-2-((heptan-3-ylidene)hydrazono)thiazolidin-4-one] | 4.62 | 104 µM | – | 90 µM | – | – | –
